pEC50: −log10 of the molar value.
Legend:
Rattus norvegicus [1] = experiment: Effect on bone calcium mobilization in low-calcium diet fed rat at 100 pmol/day, ip after 7 days; type: functional
Rattus norvegicus [2] = experiment: Effect on intestinal calcium transport in low-calcium diet fed rat assessed as serosal:mucosal ratio of calcium at 650 pmol/day, ip after 7 days; type: functional
Rattus norvegicus [3] = experiment: Effect on bone calcium mobilization in low-calcium diet fed rat at 325 pmol/day, ip after 7 days; type: functional
Vitamin D3 receptor [4] = target: T1, Vitamin D3 receptor (Homo sapiens, UniProt P11473); experiment: Induction of transactivation of human VDR responsive gene in COS7 cells by rat osteopontin luciferase reporter gene assay; type: cell-based, COS-7
T1 sequence (P11473 whole entry): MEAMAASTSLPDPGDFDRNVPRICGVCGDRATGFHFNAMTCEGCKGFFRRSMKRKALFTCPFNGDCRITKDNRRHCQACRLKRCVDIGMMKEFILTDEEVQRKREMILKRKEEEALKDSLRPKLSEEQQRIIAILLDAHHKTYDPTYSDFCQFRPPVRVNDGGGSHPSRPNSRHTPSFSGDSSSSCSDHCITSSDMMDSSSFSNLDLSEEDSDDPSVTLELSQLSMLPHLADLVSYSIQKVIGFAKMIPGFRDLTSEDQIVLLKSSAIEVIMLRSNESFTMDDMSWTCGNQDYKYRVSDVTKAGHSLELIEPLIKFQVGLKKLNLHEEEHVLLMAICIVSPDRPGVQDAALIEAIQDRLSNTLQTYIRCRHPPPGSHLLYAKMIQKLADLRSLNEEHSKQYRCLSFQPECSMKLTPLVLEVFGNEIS

HL-60 = experiment: Induction of human HL60 cell differentiation to monocytes by NBT reduction assay; type: functional, cell-based
Rattus norvegicus [5] = experiment: Effect on bone calcium mobilization in low-calcium diet fed rat assessed by measuring at 650 pmol/day, ip after 7 days; type: functional
Rattus norvegicus [6] = experiment: Effect on intestinal calcium transport in low-calcium diet fed rat assessed as serosal:mucosal ratio of calcium at 325 pmol/day, ip after 7 days; type: functional
Vitamin D3 receptor [7] = target: T2, Vitamin D3 receptor (Bos taurus, UniProt Q28037); experiment: Displacement of [3H]1,25-(OH)2D3 from vitamin D receptor in bovine thymus
T2 sequence (Q28037 whole entry): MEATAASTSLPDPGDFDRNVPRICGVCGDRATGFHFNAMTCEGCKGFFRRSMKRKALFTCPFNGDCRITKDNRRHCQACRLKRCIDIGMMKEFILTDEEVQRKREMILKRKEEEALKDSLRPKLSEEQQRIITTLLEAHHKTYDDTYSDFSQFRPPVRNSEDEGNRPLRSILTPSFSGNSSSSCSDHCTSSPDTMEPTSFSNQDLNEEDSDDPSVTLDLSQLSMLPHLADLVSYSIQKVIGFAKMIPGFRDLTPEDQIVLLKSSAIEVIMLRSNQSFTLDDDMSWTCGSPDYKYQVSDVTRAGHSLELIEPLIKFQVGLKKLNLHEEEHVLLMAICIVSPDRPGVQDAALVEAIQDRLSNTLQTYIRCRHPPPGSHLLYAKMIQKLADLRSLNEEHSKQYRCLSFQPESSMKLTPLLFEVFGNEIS

Rattus norvegicus [8] = experiment: Effect on intestinal calcium transport in low-calcium diet fed rat assessed as serosal:mucosal ratio of calcium at 100 pmol/day, ip after 7 days; type: functional

Compound | Activity (Rattus norvegicus [1]) | Ratio (Rattus norvegicus [2]) | Activity (Rattus norvegicus [3]) | pEC50 (Vitamin D3 receptor [4]) | pEC50 (HL-60) | Activity (Rattus norvegicus [5]) | Ratio (Rattus norvegicus [6]) | pEC50 (Vitamin D3 receptor [7]) | Ratio (Rattus norvegicus [8])
C=C1/C(=C\C=C2/CCC[C@@]3(C)C2CC[C@@H]3[C@@H](C)[C@H](C)CCC(C)(C)O)C[C@@H](O)C[C@@H]1O (stereo partly drawn) | 5 | 12.2 | 8.1 | 11.52 | 10.74 | 8.4 | 8.2 | 10.51 | 7
C=C1/C(=C\C=C2/CCC[C@@]3(C)C2CC[C@@H]3[C@@H](C)[C@H](CCCC)CCC(C)(C)O)C[C@@H](O)C[C@@H]1O (stereo partly drawn) | – | – | – | 9.70 | 8.98 | – | – | 9.05 | –
C=C1/C(=C\C=C2/CCC[C@]3(C)[C@@H]([C@H](C)CCCC(C)(C)O)CC[C@@H]23)C[C@@H](O)C[C@@H]1O [CALCITRIOL] | 4.6 | – | 5.5 | – | – | – | – | – | –
C=C1/C(=C\C=C2/CCC[C@@]3(C)C2CC[C@@H]3[C@@H](C)[C@H](CC)CCC(C)(C)O)C[C@@H](O)C[C@@H]1O (stereo partly drawn) | 3.9 | 8.5 | 5 | 11.70 | 10.24 | 6.2 | 6.3 | 10.74 | 5.7
